Results published in US20220324835A1 (Nurix Therapeutics, Inc., priority 2018, published 2022).
pIC50: −log10 of the molar value.

Assays:
T-cell [1] = test: CD25 cell surface staining on T-cells co-stimulated with anti-CD3 and anti-CD28 antibody (Biological Example 2); format: cell-based, human; details: Homo sapiens, T-cell, primary human total T-cells, baseline = anti-CD3/anti-CD28 stimulated cells without inhibitor, read-out: CD25 staining, Anti-CD3/Anti-CD28 stimulation, fold change over baseline; for fold induction at 0.3 µM: 0.3 μM compound; for fold induction at 1 µM: 1 μM compound; for fold induction at 4 µM: 4 μM compound
Outline: (§1)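 No assay protocol given; T-cells stimulated with anti-CD3 alone or anti-CD3 plus anti-CD28, with or without Cbl-b inhibitor. Activation read as IL-2 secretion or CD25 surface staining, expressed as fold over baseline from uninhibited cells […].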

Cbl-b [2] = biological target: T1, Cbl-b (Homo sapiens, UniProt Q13191); test: Cbl-b activity assay (Cbl-b inhibition assay), TR-FRET of Cbl-b interaction with UbcH5B-Ub; format: biochemical; details: assay buffer with 100 mM NaCl, 60 nM Src kinase; read-out: Cbl-b activity IC50
Outline: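 TR-FRET readout of Cbl-b binding to Bodipy-fluorescein N-terminally labeled Ub conjugated to UbcH5B C85K, measured with compound present. After compound incubation, 60 nM Src kinase with 1 mM ATP and 5 mM MgCl2 (final) was added for 1.5 h, then a further 1 h incubation; asterisked values used 50 mM NaCl buffer and 30 nM Src.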

T-cell [3] = test: IL-2 secretion from T-cells co-stimulated with anti-CD3 and anti-CD28 antibody (Biological Example 2); format: cell-based, human; details: Homo sapiens, T-cell, primary human total T-cells, baseline = anti-CD3/anti-CD28 stimulated cells without inhibitor, read-out: IL-2 secretion, Anti-CD3/Anti-CD28 stimulation, fold change over baseline; for fold induction at 0.3 µM: 0.3 μM compound; for fold induction at 1 µM: 1 μM compound; for fold induction at 4 µM: 4 μM compound
Outline: as §1

Cbl-b [4] = biological target: T1, Cbl-b; test: Cbl-b inhibition assay (Cbl-b activity assay, FRET, Biological Example 1; 100 mM NaCl, 60 nM Src kinase); format: biochemical; details: upper bound stated in text lists; read-out: IC50 values in the Cbl-b inhibition assay of Biological Example 1
Outline: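 TR-FRET assay using N-terminal biotinylated Avi-tagged Cbl-b bound to streptavidin-terbium, Src kinase for Cbl-b phosphorylation, and UbcH5B irreversibly conjugated to Bodipy-Fluorescein-ubiquitin. Phosphorylated Cbl-b binds UbcH5B-Ub, bringing the fluorophores together; inhibition is read as loss of FRET signal.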

T1 sequence (Q13191 36-427): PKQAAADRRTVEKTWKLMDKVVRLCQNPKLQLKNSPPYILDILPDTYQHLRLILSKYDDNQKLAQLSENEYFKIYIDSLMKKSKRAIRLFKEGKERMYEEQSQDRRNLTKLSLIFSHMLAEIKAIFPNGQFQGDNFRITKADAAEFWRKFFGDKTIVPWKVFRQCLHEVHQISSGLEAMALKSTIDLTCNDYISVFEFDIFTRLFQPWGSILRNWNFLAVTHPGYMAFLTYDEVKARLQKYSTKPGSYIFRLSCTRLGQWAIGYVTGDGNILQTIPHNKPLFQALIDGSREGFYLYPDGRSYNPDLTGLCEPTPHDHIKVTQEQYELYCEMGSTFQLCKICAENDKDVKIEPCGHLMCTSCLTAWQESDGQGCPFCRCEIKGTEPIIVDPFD

## Cc1n[nH]c(C)c1-c1cc2c(c(C(F)(F)F)c1)CN(c1cccc(C3(Cc4nncn4C)COC3)c1)C2=O [Compound 385, 6-(3,5-dimethyl-1H-pyrazol-4-yl)-2-(3-{3-[(4-methyl-4H-1,2,4-triazol-3-yl)methyl]oxetan-3-yl}phenyl)-4-(trifluoromethyl)-2,3-dihydro-1H-isoindol-1-one]
T-cell [1]
  fold induction at 0.3 µM: 1.01 to 1.3
  fold induction at 1 µM: 1.01 to 1.3
  fold induction at 4 µM: 1.31 to 1.5
Cbl-b [2]
  pIC50: > 7.00
T-cell [3]
  fold induction at 0.3 µM: 1.01 to 2.5
  fold induction at 1 µM: 2.51 to 5
  fold induction at 4 µM: > 7.5
Cbl-b [4]
  pIC50: ≥ 7.00

## C[C@H](Cc1nncn1C)c1cccc(N2Cc3c(cc(CN4CC(O)C4)cc3C(F)(F)F)C2=O)c1 [Compound 393, (R)-6-((3-hydroxyazetidin-1-yl)methyl)-2-(3-(1-(4-methyl-4H-1,2,4-triazol-3-yl)propan-2-yl)phenyl)-4-(trifluoromethyl)isoindolin-1-one]
T-cell [1]
  fold induction at 0.3 µM: 1.01 to 1.3
  fold induction at 1 µM: 1.31 to 1.5
  fold induction at 4 µM: 1.31 to 1.5
Cbl-b [2]
  pIC50: > 7.00
T-cell [3]
  fold induction at 0.3 µM: 2.51 to 5
  fold induction at 1 µM: > 7.5
  fold induction at 4 µM: > 7.5
Cbl-b [4]
  pIC50: ≥ 7.00

## C[C@H](Cc1nncn1C)c1cccc(N2Cc3c(cc(CN4CC(C)(O)C4)cc3C(F)(F)F)C2=O)c1 [Compound 397]
T-cell [1]
  fold induction at 0.3 µM: 1.01 to 1.3
  fold induction at 1 µM: 1.31 to 1.5
  fold induction at 4 µM: 1.31 to 1.5
Cbl-b [2]
  pIC50: > 7.00
T-cell [3]
  fold induction at 0.3 µM: 2.51 to 5
  fold induction at 1 µM: > 7.5
  fold induction at 4 µM: > 7.5
Cbl-b [4]
  pIC50: ≥ 7.00

## C[C@H](Cc1nncn1C)c1cccc(N2Cc3c(cc(CN4CC[C@](C)(O)C4)cc3C(F)(F)F)C2=O)c1 [Compound 398, 6-(((S)-3-hydroxy-3-methylpyrrolidin-1-yl)methyl)-2-(3-((R)-1-(4-methyl-4H-1,2,4-triazol-3-yl)propan-2-yl)phenyl)-4-(trifluoromethyl)isoindolin-1-one]
T-cell [1]
  fold induction at 0.3 µM: 1.01 to 1.3
  fold induction at 1 µM: 1.31 to 1.5
  fold induction at 4 µM: 1.31 to 1.5
Cbl-b [2]
  pIC50: > 7.00
T-cell [3]
  fold induction at 0.3 µM: 2.51 to 5
  fold induction at 1 µM: 5 to 7.5
  fold induction at 4 µM: > 7.5
Cbl-b [4]
  pIC50: ≥ 7.00

## C[C@H](Cc1nncn1C)c1cccc(N2Cc3c(cc(CN4CC[C@H](F)C4)cc3C(F)(F)F)C2=O)c1 [Compound 399, 6-(((S)-3-fluoropyrrolidin-1-yl)methyl)-2-(3-((R)-1-(4-methyl-4H-1,2,4-triazol-3-yl)propan-2-yl)phenyl)-4-(trifluoromethyl)isoindolin-1-one]
T-cell [1]
  fold induction at 0.3 µM: 1.01 to 1.3
  fold induction at 1 µM: 1.31 to 1.5
  fold induction at 4 µM: 1.31 to 1.5
Cbl-b [2]
  pIC50: > 7.00
T-cell [3]
  fold induction at 0.3 µM: 5 to 7.5
  fold induction at 1 µM: > 7.5
  fold induction at 4 µM: > 7.5
Cbl-b [4]
  pIC50: ≥ 7.00

## Cn1cnnc1CC1(c2cccc(N3Cc4c(cc(CN5CC[C@H](F)C5)cc4C(F)(F)F)C3=O)c2)COC1 [Compound 410, 6-{[(3S)-3-fluoropyrrolidin-1-yl]methyl}-2-(3-{3-[(4-methyl-4H-1,2,4-triazol-3-yl)methyl]oxetan-3-yl}phenyl)-4-(trifluoromethyl)-2,3-dihydro-1H-isoindol-1-one]
T-cell [1]
  fold induction at 0.3 µM: 1.31 to 1.5
  fold induction at 1 µM: 1.51 to 1.75
  fold induction at 4 µM: 1.51 to 1.75
Cbl-b [2]
  pIC50: > 7.00
T-cell [3]
  fold induction at 0.3 µM: 5 to 7.5
  fold induction at 1 µM: > 7.5
  fold induction at 4 µM: > 7.5
Cbl-b [4]
  pIC50: ≥ 7.00

## C[C@@H](c1cc2c(c(C(F)(F)F)c1)CN(c1cccc(C3(Cc4nncn4C)COC3)c1)C2=O)N1CC[C@H](F)C1 [Compound 412, 6-((S)-1-((S)-3-fluoropyrrolidin-1-yl)ethyl)-2-(3-(3-((4-methyl-4H-1,2,4-triazol-3-yl)methyl)oxetan-3-yl)phenyl)-4-(trifluoromethyl)isoindolin-1-one]
T-cell [1]
  fold induction at 0.3 µM: 1.31 to 1.5
  fold induction at 1 µM: 1.51 to 1.75
  fold induction at 4 µM: 1.51 to 1.75
Cbl-b [2]
  pIC50: > 7.00
T-cell [3]
  fold induction at 0.3 µM: > 7.5
  fold induction at 1 µM: > 7.5
  fold induction at 4 µM: > 7.5
Cbl-b [4]
  pIC50: ≥ 7.00

## C[C@H](c1cc2c(c(C(F)(F)F)c1)CN(c1cccc(C3(Cc4nncn4C)COC3)c1)C2=O)N1CC[C@H](F)C1 [Compound 413, 6-((R)-1-((S)-3-fluoropyrrolidin-1-yl)ethyl)-2-(3-(3-((4-methyl-4H-1,2,4-triazol-3-yl)methyl)oxetan-3-yl)phenyl)-4-(trifluoromethyl)isoindolin-1-one]
T-cell [1]
  fold induction at 0.3 µM: 1.31 to 1.5
  fold induction at 1 µM: 1.51 to 1.75
  fold induction at 4 µM: 1.31 to 1.5
Cbl-b [2]
  pIC50: > 7.00
T-cell [3]
  fold induction at 0.3 µM: 5 to 7.5
  fold induction at 1 µM: > 7.5
  fold induction at 4 µM: > 7.5
Cbl-b [4]
  pIC50: ≥ 7.00

## Cn1cnnc1CC1(c2cccc(N3Cc4c(cc(CN5CC(F)C5)cc4C(F)(F)F)C3=O)c2)COC1 [Compound 415, 6-((3-fluoroazetidin-1-yl)methyl)-2-(3-(3-((4-methyl-4H-1,2,4-triazol-3-yl)methyl)oxetan-3-yl)phenyl)-4-(trifluoromethyl)isoindolin-1-one]
T-cell [1]
  fold induction at 0.3 µM: 1.31 to 1.5
  fold induction at 1 µM: 1.31 to 1.5
  fold induction at 4 µM: 1.51 to 1.75
Cbl-b [2]
  pIC50: > 7.00
T-cell [3]
  fold induction at 0.3 µM: 5 to 7.5
  fold induction at 1 µM: > 7.5
  fold induction at 4 µM: > 7.5
Cbl-b [4]
  pIC50: ≥ 7.00

## Cn1cnnc1CC1(c2cccc(N3Cc4c(cc(CN5CC[C@@H](C#N)C5)cc4C(F)(F)F)C3=O)c2)COC1 [Compound 421, (R)-1-((2-(3-(3-((4-methyl-4H-1,2,4-triazol-3-yl)methyl)oxetan-3-yl)phenyl)-3-oxo-7-(trifluoromethyl)isoindolin-5-yl)methyl)pyrrolidine-3-carbonitrile]
T-cell [1]
  fold induction at 0.3 µM: 1.01 to 1.3
  fold induction at 1 µM: 1.01 to 1.3
  fold induction at 4 µM: 1.31 to 1.5
Cbl-b [2]
  pIC50: > 7.00
T-cell [3]
  fold induction at 0.3 µM: 5 to 7.5
  fold induction at 1 µM: > 7.5
  fold induction at 4 µM: > 7.5
Cbl-b [4]
  pIC50: ≥ 7.00

## Cn1cnnc1CC1(c2cccc(N3Cc4c(cc(CN5CC[C@H](C#N)C5)cc4C(F)(F)F)C3=O)c2)COC1 [Compound 422, (S)-1-((2-(3-(3-((4-methyl-4H-1,2,4-triazol-3-yl)methyl)oxetan-3-yl)phenyl)-3-oxo-7-(trifluoromethyl)isoindolin-5-yl)methyl)pyrrolidine-3-carbonitrile]
T-cell [1]
  fold induction at 0.3 µM: 1.31 to 1.5
  fold induction at 1 µM: 1.31 to 1.5
  fold induction at 4 µM: 1.31 to 1.5
Cbl-b [2]
  pIC50: > 7.00
T-cell [3]
  fold induction at 0.3 µM: 5 to 7.5
  fold induction at 1 µM: > 7.5
  fold induction at 4 µM: > 7.5
Cbl-b [4]
  pIC50: ≥ 7.00

## Cn1cnnc1CC1(c2cccc(N3Cc4c(cc(CN5C[C@H]6C[C@H]6C5)cc4C(F)(F)F)C3=O)c2)COC1 [Compound 429, 6-(((1R,5S)-3-azabicyclo[3.1.0]hexan-3-yl)methyl)-2-(3-(3-((4-methyl-4H-1,2,4-triazol-3-yl)methyl)oxetan-3-yl)phenyl)-4-(trifluoromethyl)isoindolin-1-one]
T-cell [1]
  fold induction at 0.3 µM: 1.31 to 1.5
  fold induction at 1 µM: 1.31 to 1.5
  fold induction at 4 µM: 1.51 to 1.75
Cbl-b [2]
  pIC50: > 7.00
T-cell [3]
  fold induction at 0.3 µM: > 7.5
  fold induction at 1 µM: > 7.5
  fold induction at 4 µM: > 7.5
Cbl-b [4]
  pIC50: ≥ 7.00
